Measured values: US20070280929A1, “ADJUVANT IN THE FORM OF A LIPID-MODIFIED NUCLEIC ACID” (priority 2006, published 2007)

Experiments:
[1] = tested on: human PBMC cells; test: TNF-α release by human PBMC cells after 16 h co-incubation, supernatants analysed by ELISA; assay type: cell-based; details: FIG. 6, 10 μg/ml RNA oligonucleotides
Procedure: In order to determine the immunogenic activity of adjuvants according to the invention, such adjuvants in the form of a lipid-modified nucleic acid containing a sequence according to SEQ ID NO: 40, 41 or 42 were co-incubated with human cells. To this end, human PBMC cells, for example, containing RNA were co-incubated for 16 hours in X-vivo15 medium (BioWhittaker), enriched with 2 mM L-glutamine (BioWhittaker), 10 U/ml penicillin (BioWhittaker) and 10 μg/ml streptomycin, with 10 μg/ml of RNA (mRNA coding for β-galactosidase or phosphorothioate RNA oligonucleotide 40 5′ […] (SEQ ID NO: 40)) and optionally with 10 μg/ml protamine. The supernatants were removed and analysed by means of ELISA. […] When determining the TNFα release, a marked stimulation of the immune system can be detected, which is at least equal to that of β-galactosidase or RNA (see FIG. 5B).
In a further experiment, the release of TNF-α by human PBMC cells was determined after stimulation with RNA oligonucleotides used according to the invention and also adjuvants according to the invention.
To that end, human PBMC cells were co-incubated for 16 hours with 10 μg/ml of RNA oligonucleotides in X-vivo15 medium (BioWhittaker), enriched with 2 mM L-glutamine (BioWhittaker), 10 U/ml penicillin (BioWhittaker) and 10 μg/ml streptomycin. […] The supernatants were removed and analysed by means of ELISA. […]

[2] = tested on: breast cancer cell lines; details: various breast cancer cell lines; cited from earlier work

Row | Compound | increase in immune stimulation (TNF-α release) as compared with the unmodified RNA oligonucleotide [1] | apoptosis [2]
1 | RNA oligo Toc CV2: tocopherol-modified sequence according to SEQ ID NO: 42 (5′-AAUGGAUAUGGAAUAUGGAA-3′, RNA CV2) (RNA, backbone not given here; tocopherol lipid conjugated) | more than 10 fold | 
2 | Cc1c(C)c2c(c(C)c1OC(=O)CCC(=O)O)CC[C@@](C)(CCC[C@H](C)CCC[C@H](C)CCCC(C)C)O2 [VES, vitamin E succinate] |  | induce apoptosis
